Results from patent US20170313669A1, “LACTONE COMPOUNDS AND METHODS OF MAKING AND USING SAME” (THE SCRIPPS RESEARCH INSTITUTE, priority 2015, published 2017).

Tests used:
[1] = tested on: serine hydrolases; experiment: Gel-based ABPP in K562, off-targets; type: cell-based, human
Protocol: The K562 cell line was treated with varying concentrations of KC01 for 4 h and the cell membrane fractions analyzed by gel-based ABPP. More specifically, the membrane proteome of K562 cells (left gel, FIG. 9) or cultured K562 cells (right gel, FIG. 9) were treated with the indicated concentrations of KC01 (in vitro: 1 mg/mL proteome; 30 min treatment, 37° C.; in situ: 2×10^6 cells; 4 h treatment, 37° C.), followed by FP-rhodamine (added in vitro to cell proteomes at 2 μM for 30 min, 37° C.) and analyzed by gel-based ABPP. Estimated in vitro and in situ IC50 values for KC01 from the gel-based ABPP experiments were 0.2-0.5 μM. Gel-based ABPP experiments were performed in triplicate with consistent results.

[2] = biological target: T1, ABHD16A (Homo sapiens, UniProt O95870); experiment: PS substrate assay, human ABHD16A-transfected HEK293T membrane proteome; type: biochemical; design: transiently transfected with 12 μg of the full-length cDNA of human ABHD16A (Open Biosystems Catalog # MHS6278-202758315); host or cells: HEK293T, transient, pCMV-SPORT6
T1 sequence (O95870 1-558): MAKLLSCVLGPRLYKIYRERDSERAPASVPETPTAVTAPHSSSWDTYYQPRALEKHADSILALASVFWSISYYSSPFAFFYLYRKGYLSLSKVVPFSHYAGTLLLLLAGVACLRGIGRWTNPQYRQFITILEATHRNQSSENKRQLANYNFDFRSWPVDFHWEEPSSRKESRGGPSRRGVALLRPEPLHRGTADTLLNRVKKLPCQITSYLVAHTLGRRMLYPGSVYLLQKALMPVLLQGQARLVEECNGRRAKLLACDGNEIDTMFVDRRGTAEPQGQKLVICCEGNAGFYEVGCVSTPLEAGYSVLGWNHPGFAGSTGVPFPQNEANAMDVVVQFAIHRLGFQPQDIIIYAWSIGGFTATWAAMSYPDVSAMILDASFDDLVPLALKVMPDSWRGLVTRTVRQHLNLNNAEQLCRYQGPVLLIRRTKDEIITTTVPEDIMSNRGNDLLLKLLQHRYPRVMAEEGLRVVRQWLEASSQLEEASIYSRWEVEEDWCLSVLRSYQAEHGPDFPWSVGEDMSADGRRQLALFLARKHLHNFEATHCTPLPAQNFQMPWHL
Protocol: HEK293T cells were grown to 40% confluence in a 15 cm dish in 25 mL of Dulbecco's modified Eagle medium (DMEM) supplemented with L-glutamine and 10% (vol/vol) FCS at 37° C. and 5% CO2 (vol/vol). The cells were transiently transfected with 12 μg of the full-length cDNA of human ABHD16A (Open Biosystems Catalog # MHS6278-202758315) or murine ABHD16A (Open Biosystems Catalog # MMM1013-202760516) in pCMV-SPORT6 vector using 40 μg polyethyleneimine “MAX” (MW 40,000) (PEI) (Polysciences Inc. Catalog #24765) as the transfection reagent as per manufacturer's instructions. As a “mock” control, an empty vector was transiently transfected. […] Protein concentration was measured using the Bio-Rad DC Protein Assay Kit as per manufacturer's protocol, and ABHD16A expression was confirmed using gel-based ABPP.
All the lipid species used in the lipid substrate hydrolysis assays were purchased from Avanti Polar Lipids Inc unless mentioned otherwise. […] All the data was collected and analyzed using the Agilent MassHunter Workstation software version B.04 using the Data Acquisition and Quantitative Analysis programs respectively. Measuring the area under the peak, and normalizing it to the internal standard quantified the product release for the lipid substrate hydrolysis assays. […] Some products from the substrate hydrolysis assays were detected in positive ion mode for qualitative identification. […]

CCCCCCCCCCCCCC1OC(=O)/C1=C\CCCCC(N)=O (centres unmarked) [KC01, (Z)-6-(2-oxo-4-tridecyloxetan-3-ylidene)hexanamide]
off-targets detected [1]: Very few off-targets | IC50 [2]: 90 ± 20 nM
